Measured values reported in patent US20100087649A1, “QUINOLINONE DERIVATIVES” (priority 2006, published 2010).

Tests used:
MT4 CMV-EGFP cells = experiment: Cytotoxicity in mock-infected MT4 CMV-EGFP cells; assay type: cell-based, human; conditions: fluorescence reduced by 50%
From the text: Analogously, MT4 cells are engineered with GFP and the constitutional cytomegalovirus (CMV) promotor. This cell line is designated MT4 CMV-EGFP, and can be used for the in vitro evaluation of cytotoxicity of investigational compounds. In this cell line, GFP levels are comparably to those of infected MT4 LTR-EGFP cells. Cytotoxic investigational compounds reduce GFP levels of mock-infected MT4 CMV-EGFP cells.
(§1) Effective concentration values such as 50% effective concentration (EC50) can be determined and are usually expressed in μM. An EC50 value is defined as the concentration of test compound that reduces the fluorescence of HIV-infected cells by 50%. The 50% cytotoxic concentration (CC50 in μM) is defined as the concentration of test compound that reduces fluorescence of the mock-infected cells by 50%. The ratio of CC50 to EC50 is defined as the selectivity index (SI) and is an indication of the selectivity of the anti-HIV activity of the inhibitor. The ultimate monitoring of HIV-1 infection and cytotoxicity is done using a scanning microscope. Image analysis allows very sensitive detection of viral infection. Measurements are done before cell necrosis, which usually takes place about five days after infection, in particular measurements are performed three days after infection.

[1] = system: wild-type HIV-IIIB strain; experiment: Antiviral analysis EGFP: anti-HIV activity in MT4 LTR-EGFP cells; assay type: cell-based, HIV-1; conditions: fluorescence of HIV-infected cells reduced by 50%, three days after infection
Protocol: The compounds of the present invention were tested for anti-viral activity in a cellular assay, which was performed according to the following procedure.
The human T-cell line MT4 is engineered with Green Fluorescent Protein (GFP) and an HIV-specific promoter, HIV-1 long terminal repeat (LTR). This cell line is designated MT4 LTR-EGFP, and can be used for the in vitro evaluation of anti-HIV activity of investigational compounds. In HIV-1 infected cells, the Tat protein is produced which upregulates the LTR promotor and finally leads to stimulation of the GFP reporter production, allowing measuring ongoing HIV-infection fluorometrically.
as §1
The following Table 5 lists EC50 values, expressed in micromole/liter, against wild-type HIV-IIIB strain, for a selected number of compounds of the invention.

Row | SMILES | CC50 (MT4 CMV-EGFP cells) | EC50 [1]
1 | N#Cc1cc2ccc(-c3cscn3)cc2n(-c2ccc([N+](=O)[O-])cc2)c1=O [compound 81] | > 100 µM | 0.15 µM
2 | CN(C)C(=O)c1ccc(-c2ccc3cc(C#N)c(=O)n(-c4ccc([N+](=O)[O-])cc4)c3c2)cc1 [compound 40] | > 100 µM | 0.95 µM
3 | N#Cc1cc2ccc(-c3cc[nH]c3)cc2n(-c2ccc([N+](=O)[O-])cc2)c1=O [compound 44] | > 100 µM | 0.19 µM
4 | N#Cc1cc2ccc(NCC3CCNC3)cc2n(-c2ccc([N+](=O)[O-])cc2)c1=O (centres unmarked) [compound 18] | > 32 µM | 4.43 µM
5 | N#Cc1cc2cc(OCCCN)ccc2n(-c2ccc([N+](=O)[O-])cc2)c1=O [compound 84] | 15.5 µM | 3.64 µM
6 | N#Cc1c(NCCN)c2ccccc2n(-c2ccc([N+](=O)[O-])cc2)c1=O [compound 133] | 20.1 µM | 0.23 µM
7 | N#Cc1cc2ccc(OCCCN3CCOCC3)cc2n(-c2ccc([N+](=O)[O-])cc2)c1=O [compound 56] | > 32 µM | 1.4 µM
8 | Cc1ccc(-n2c(=O)c(C#N)cc3ccc(-c4cccc(CO)c4)cc32)cc1C#N [compound 156] | 64.9 µM | 2.58 µM
9 | N#Cc1cc2ccc(-c3ccc(C(N)=O)cc3)cc2n(-c2ccc([N+](=O)[O-])cc2)c1=O [compound 35] | 22.6 µM | 1.71 µM
10 | N#Cc1ccc2cc(C#N)c(=O)n(-c3ccc([N+](=O)[O-])cc3)c2c1 [compound 96] | > 100 µM | 13.5 µM
11 | Cc1ccc(-n2c(=O)c(C#N)c(N)c3ccc(-c4ccsc4)cc32)cc1C#N [compound 125] | > 100 µM | 4.11 µM
12 | Cc1ccc(-n2c(=O)c(C#N)cc3ccc(Cl)cc32)cc1C#N [compound 161] | > 100 µM | 6.1 µM
13 | N#Cc1cc2ccc(-c3cccs3)cc2n(-c2ccc([N+](=O)[O-])cc2)c1=O [compound 36] | > 100 µM | 0.76 µM
14 | N#Cc1c(NCC2CCNC2)c2ccccc2n(-c2ccc([N+](=O)[O-])cc2)c1=O (centres unmarked) [compound 143] | > 100 µM | 11.3 µM
15 | COCCNc1ccc2cc(C#N)c(=O)n(-c3ccc([N+](=O)[O-])cc3)c2c1 [compound 17] | > 32 µM | > 32 µM
16 | CN(C)CCOc1ccc2cc(C#N)c(=O)n(-c3ccc([N+](=O)[O-])cc3)c2c1 [compound 62] | > 32 µM | 4.29 µM
17 | CC(=O)NCCNc1c(C#N)c(=O)n(-c2ccc([N+](=O)[O-])cc2)c2ccccc12 [compound 141] | > 100 µM | 32.2 µM
18 | N#Cc1c(N)c2cccnc2n(-c2ccc([N+](=O)[O-])cc2)c1=O [compound 129] | > 32 µM | 18.3 µM
19 | N#Cc1cc2ccc(OCCN)cc2n(-c2ccc([N+](=O)[O-])cc2)c1=O [compound 53] | > 100 µM | 1.14 µM
20 | N#Cc1cc2cc(OC[C@@H]3CCCN3)ccc2n(-c2ccc([N+](=O)[O-])cc2)c1=O [compound 88] | 6.54 µM | 1.41 µM

Row | SMILES | CC50 (MT4 CMV-EGFP cells) | EC50 [1]
21 | N#Cc1cc2ccc(-c3cccc(O)c3)cc2n(-c2ccc([N+](=O)[O-])cc2)c1=O [compound 32] | > 100 µM | 0.65 µM
22 | CN(C)CCCOc1ccc2cc(C#N)c(=O)n(-c3ccc([N+](=O)[O-])cc3)c2c1 [compound 64] | 70.6 µM | 0.47 µM
23 | N#Cc1cc2ccc(OCCCN)cc2n(-c2ccc([N+](=O)[O-])cc2)c1=O [compound 57] | 49.6 µM | 1.06 µM
24 | Cc1ccc2cc(C#N)c(=O)n(-c3ccc([N+](=O)[O-])cc3)c2c1 [compound 95] | > 100 µM | > 100 µM
25 | N#Cc1cc2ccc(-c3cnccn3)cc2n(-c2ccc([N+](=O)[O-])cc2)c1=O [compound 78] | > 100 µM | 1.32 µM
26 | N#Cc1cc2ccc(-c3ccccn3)cc2n(-c2ccc([N+](=O)[O-])cc2)c1=O [compound 82] | > 100 µM | 0.54 µM
27 | Cc1ccc(-n2c(=O)c(C#N)c(N)c3ccc(-c4cccs4)cc32)cc1C#N [compound 126] | > 100 µM | 5.7 µM
28 | COc1cc2c(N)c(C#N)c(=O)n(-c3ccc([N+](=O)[O-])cc3)c2cc1OC [compound 109] | > 100 µM | 13.5 µM
29 | N#Cc1cc2ccc(OCCCN3CCCC3)cc2n(-c2ccc([N+](=O)[O-])cc2)c1=O [compound 73] | 36.4 µM | 0.42 µM
30 | Cc1ccc(-n2c(=O)c(C#N)cc3ccc(-c4cc[nH]n4)cc32)cc1C#N [compound 153] | > 100 µM | 0.53 µM
31 | N#Cc1cc2cc(OCCN)ccc2n(-c2ccc([N+](=O)[O-])cc2)c1=O [compound 86] | > 32 µM | 1.18 µM
32 | CC(=O)Nc1cccc(-c2ccc3cc(C#N)c(=O)n(-c4ccc(C)c(C#N)c4)c3c2)c1 [compound 155] | > 100 µM | 11 µM
33 | Cc1ccc(-n2c(=O)c(C#N)cc3ccc(-c4cccn4C)cc32)cc1C#N [compound 154] | > 100 µM | 10 µM
34 | N#Cc1c(NCCc2c[nH]cn2)c2ccccc2n(-c2ccc([N+](=O)[O-])cc2)c1=O [compound 144] | > 100 µM | 3.84 µM
35 | CN(C)CCCOc1ccc2c(c1)cc(C#N)c(=O)n2-c1ccc([N+](=O)[O-])cc1 [compound 85] | > 32 µM | 1.15 µM
36 | CCC(CC)NCCCOc1ccc2cc(C#N)c(=O)n(-c3ccc([N+](=O)[O-])cc3)c2c1 [compound 68] | 51.6 µM | 0.73 µM
37 | N#Cc1c(N)c2ccc(Cl)cc2n(-c2cccc([N+](=O)[O-])c2)c1=O [compound 112] | > 100 µM | 5.63 µM
38 | CCNCCCOc1ccc2cc(C#N)c(=O)n(-c3ccc([N+](=O)[O-])cc3)c2c1 [compound 65] | 69 µM | 0.26 µM
39 | N#Cc1c(NCc2ccccn2)c2ccccc2n(-c2ccc([N+](=O)[O-])cc2)c1=O [compound 131] | > 100 µM | 15.9 µM
40 | N#Cc1c(N)c2ccc(Cl)cc2n(-c2ccc(Cl)c(F)c2)c1=O [compound 105] | > 100 µM | > 100 µM

Row | SMILES | CC50 (MT4 CMV-EGFP cells) | EC50 [1]
41 | N#Cc1c(NCCO)c2ccccc2n(-c2ccc([N+](=O)[O-])cc2)c1=O [compound 134] | 54.6 µM | 13.5 µM
42 | CNCCNc1c(C#N)c(=O)n(-c2ccc([N+](=O)[O-])cc2)c2ccccc12 [compound 135] | 53.2 µM | 3.37 µM
43 | N#Cc1c(NCCCN)c2ccccc2n(-c2ccc([N+](=O)[O-])cc2)c1=O [compound 137] | 45.1 µM | 3.66 µM
44 | N#Cc1cc2ccc(-c3ccoc3)cc2n(-c2ccc([N+](=O)[O-])cc2)c1=O [compound 41] | 38.1 µM | 0.28 µM
45 | CNCCNc1ccc2cc(C#N)c(=O)n(-c3ccc([N+](=O)[O-])cc3)c2c1 [compound 15] | > 32 µM | 1.37 µM
46 | CNc1c(C#N)c(=O)n(-c2ccc(C)c(C#N)c2)c2ccccc12 [compound 165] | > 100 µM | 7.94 µM
47 | N#Cc1cc2ccc(-c3cccc(CN)c3)cc2n(-c2ccc([N+](=O)[O-])cc2)c1=O [compound 30] | 24.7 µM | 0.63 µM
48 | N#Cc1cc2ccc(-c3nccs3)cc2n(-c2ccc([N+](=O)[O-])cc2)c1=O [compound 80] | 5.02 µM | 0.13 µM
49 | N#Cc1cc2cc(OCCN3CCCC3)ccc2n(-c2ccc([N+](=O)[O-])cc2)c1=O [compound 89] | > 32 µM | 1.57 µM
50 | COc1ccc2c(N)c(C#N)c(=O)n(-c3ccc([N+](=O)[O-])cc3)c2c1 [compound 116] | > 100 µM | 0.78 µM
51 | CN(C)CCCNc1c(C#N)c(=O)n(-c2ccc([N+](=O)[O-])cc2)c2ccccc12 [compound 139] | 59.5 µM | 2.16 µM
52 | Cc1ccc2c(N)c(C#N)c(=O)n(-c3ccc([N+](=O)[O-])cc3)c2c1 [compound 115] | > 100 µM | 0.68 µM
53 | N#Cc1cc2ccc(-c3ccc[nH]3)cc2n(-c2ccc([N+](=O)[O-])cc2)c1=O [compound 34] | 32.3 µM | 0.25 µM
54 | N#Cc1cc2cc(OC[C@H]3CCCN3)ccc2n(-c2ccc([N+](=O)[O-])cc2)c1=O [compound 87] | > 32 µM | 1.19 µM
55 | N#Cc1cc2ccc(-c3ccc(C(=O)O)cc3)cc2n(-c2ccc([N+](=O)[O-])cc2)c1=O [compound 49] | > 100 µM | > 100 µM
56 | N#Cc1c(N)c2ccc(C(F)(F)F)cc2n(-c2ccc([N+](=O)[O-])cc2)c1=O [compound 114] | > 100 µM | 3.94 µM
57 | N#Cc1cc2ccc(-c3cncs3)cc2n(-c2ccc([N+](=O)[O-])cc2)c1=O [compound 77] | 25.8 µM | 0.34 µM
58 | N#Cc1cc2ccc(NCCCN3CCCC3)cc2n(-c2ccc([N+](=O)[O-])cc2)c1=O [compound 21] | 69.5 µM | 0.21 µM
